Measured values: patent publication US12030903B2, “Antiviral compounds” (Gilead Sciences, Inc., priority 2020, dated 2024)

Experiments:
[1] = test system: Dengue serotype 2 New Guinea C (NGC) strain; experiment: DENV-2 Huh-7 EC50 (qPCR of viral RNA in infected Huh7 cells); type: cell-based; conditions: Dengue virus, DENV2, Huh-7, Huh7 cells infected with Dengue serotype 2 NGC, MOI=0.1, 48 hours
Outline: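 Huh7 cells were infected 2 h at 37 °C with DENV-2 NGC at MOI 0.1, then plated with graded compound doses (0.25% DMSO) in triplicate for 48 h. Viral RNA was quantified by duplex TaqMan qPCR against GAPDH. EC50 was normalized to positive and no-compound controls.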

[2] = HEp-2 CC50 (cytotoxicity in uninfected HEp-2 cells); type: cell-based; conditions: human, CellTiter Glo
Description: Instead, an uninfected cell mixture at the same density is added at 20 uL/well to plates containing prediluted compounds, also at 100 nL/sample. Assay plates are then incubated for 4 days followed by a cell viability test using the same CellTiter Glo reagent addition and measurement of luminescent readouts. Untreated cell and cells treated at 2 μM puromycin (Sigma, St. Louis, MO) serve as 100% and 0% cell viability control, respectively.

[3] = test system: Dengue 2, New Guinea strain (NGC); experiment: DENV-2 moDC EC50 (qPCR of viral RNA in infected moDCs); type: cell-based, New Guinea strain (NGC); human moDCs; conditions: Dengue virus, human moDCs infected with Dengue 2 NGC, MOI=0.1, 48 hours
Description: Example 82. DENV-2 moDC EC50
Human monocyte-derived dendritic cells (moDCs) were derived from CD14+ monocytes (AllCells) cultured in Human Mo-DC Differentiation medium containing GM-CSF and IL-4 (Miltenyi Biotec). On day 7, moDCs were harvested by mechanical disruption, washed and suspended in serum-free RPMI. moDCs were infected with Vero-derived Dengue 2, New Guinea strain (NGC) at a MOI=0.1 for two hours in serum-free RPMI with gentle agitation at 37° C. Cells were washed and resuspended in 10% serum-containing RPMI (Gibco, supplemented with sodium pyruvate, NEAA, Penicillin-Streptomycin). […] were plated in triplicate in 96-well plates with compounds dispensed at graded doses (Hewlett-Packard D300 Digital Dispenser). All wells were normalized to 0.25% DMSO. At 48 hours, cells were washed with 1×PBS and all supernatants removed. Total RNA was extracted using RNEasy 96 plates (Qiagen) and used to generate first-strand cDNA using XLT cDNA 5× Supermix (QuantaBio). cDNA was used as a template in a Taqman qPCR duplex reaction specific to DENV2 viral and GAPDH gene expression. EC50 values were determined using Prism Graphpad software, with normalization to a positive control and no compound negative control wells.

[4] = test system: RSV strain A2; experiment: RSV HEp-2 EC50 (infectious cytopathic cell protection assay); type: cell-based, RSV strain A2; HEp-2 cells; conditions: human respiratory syncytial virus, HEp-2, 96 h, read-out: RSV Hep-2 EC50
Outline: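 HEp-2 cells (50,000/mL) infected with titered RSV stock, added onto compound in 3-fold serial dilutions; 4 days at 37 °C. Cell viability read by CellTiter-Glo luminescence; percent inhibition of virus-induced cytopathic effect derived from remaining viability against 0% and 100% inhibition controls.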

[5] = Huh-7 CC50 (CellTiter Glo viability); type: cell-based, Human; conditions: human, Huh7 hepatocarcinoma cells
Outline: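 Huh7 cells in 10% FCS DMEM plated at 1-2×10^4 per well in triplicate with graded compound doses, 0.25% DMSO throughout. Viability after 48 hours by CellTiter Glo luminescence, normalized to no-compound and no-cell controls; CC50 from curve fitting.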

[6] = moDC CC50 (CellTiter Glo viability); type: cell-based, Human; conditions: human, uninfected moDCs
Description: Human monocyte-derived dendritic cells (moDCs) were derived from CD14+ monocytes (AllCells) cultured in Human Mo-DC Differentiation medium containing GM-CSF and IL-4 (Miltenyi Biotec). On day 7, moDCs were harvested by mechanical disruption, washed and cultured in triplicate at […] cells/well in 96-well plates with compounds dispensed at graded doses (Hewlett-Packard D300 Digital Dispenser). All wells were normalized to 0.25% DMSO. After 48 hours, CellTiter Glo (Promega) was added and incubated for 10 minutes at room temp before reading on a luminometer. % viability curves were calculated against no compound and no cell control wells. CC50 values were determined using Prism Graphpad software.

Structure (SMILES)	EC50 [1]	CC50 at 4 days [2]	EC50 [3]	EC50 [4]	CC50 at 48 h [5]	CC50 at 48 h [6]
CCCCOCCOC(=O)[C@H](C)NP(=O)(OC[C@@]1(CF)O[C@@H](c2ccc3c(N)ncnn23)[C@H](O)[C@@H]1O)Oc1ccccc1 (stereo partly drawn) [Example 42, 2-butoxyethyl ((((2R,3S,4R,5S)-5-(4-aminopyrrolo[2,1-f][1,2,4]triazin-7-yl)-2-(fluoromethyl)-3,4-dihydroxytetrahydrofuran-2-yl)methoxy)(phenoxy)phosphoryl)-L-alaninate]	667 nM	> 100 µM	258 nM	860 nM	21.1 µM	5.33 µM
COC(C)(C)COC(=O)[C@H](C)NP(=O)(OC[C@@]1(CF)O[C@@H](c2ccc3c(N)ncnn23)[C@H](O)[C@@H]1O)Oc1ccccc1 (stereo partly drawn) [Example 43, 2-methoxy-2-methylpropyl ((((2R,3S,4R,5S)-5-(4-aminopyrrolo[2,1-f][1,2,4]triazin-7-yl)-2-(fluoromethyl)-3,4-dihydroxytetrahydrofuran-2-yl)methoxy)(phenoxy)phosphoryl)-L-alaninate]	1200 nM	> 100 µM	626 nM	2160 nM	> 25 µM	17.9 µM
CCOCCOCCOC(=O)[C@H](C)NP(=O)(OC[C@@]1(CF)O[C@@H](c2ccc3c(N)ncnn23)[C@H](O)[C@@H]1O)Oc1ccccc1 (stereo partly drawn) [Example 45, 2-(2-ethoxyethoxy)ethyl ((((2R,3S,4R,5S)-5-(4-aminopyrrolo[2,1-f][1,2,4]triazin-7-yl)-2-(fluoromethyl)-3,4-dihydroxytetrahydrofuran-2-yl)methoxy)(phenoxy)phosphoryl)-L-alaninate]	4580 nM	> 100 µM	> 5000 nM	21800 nM	> 25 µM	> 25 µM
CCCCCOC(=O)[C@H](C)NP(=O)(OC[C@@]1(CF)O[C@@H](c2ccc3c(N)ncnn23)[C@H](O)[C@@H]1O)Oc1ccccc1 (stereo partly drawn) [Example 59, pentyl ((((2R,3S,4R,5S)-5-(4-aminopyrrolo[2,1-f][1,2,4]triazin-7-yl)-2-(fluoromethyl)-3,4-dihydroxytetrahydrofuran-2-yl)methoxy)(phenoxy)phosphoryl)-L-alaninate]	153 nM	45.1 µM	62 nM	298 nM	11.3 µM	7.04 µM
CCCC(CCC)COC(=O)[C@H](C)NP(=O)(OC[C@@]1(CF)O[C@@H](c2ccc3c(N)ncnn23)[C@H](O)[C@@H]1O)Oc1ccccc1 (stereo partly drawn) [Example 68, 2-propylpentyl ((((2R,3S,4R,5S)-5-(4-aminopyrrolo[2,1-f][1,2,4]triazin-7-yl)-2-(fluoromethyl)-3,4-dihydroxytetrahydrofuran-2-yl)methoxy)(phenoxy)phosphoryl)-L-alaninate]	278 nM	> 100 µM	169 nM	141 nM	> 25 µM	6.26 µM
CC(C)COC(=O)[C@H](C)NP(=O)(OC[C@@]1(CF)O[C@@H](c2ccc3c(N)ncnn23)[C@H](O)[C@@H]1O)Oc1ccccc1 (stereo partly drawn) [Example 70, isobutyl ((((2R,3S,4R,5S)-5-(4-aminopyrrolo[2,1-f][1,2,4]triazin-7-yl)-2-(fluoromethyl)-3,4-dihydroxytetrahydrofuran-2-yl)methoxy)(phenoxy)phosphoryl)-L-alaninate]	245 nM	69.4 µM	190 nM	212 nM	10.6 µM	3.57 µM
C[C@H](NP(=O)(OC[C@@]1(CF)O[C@@H](c2ccc3c(N)ncnn23)[C@H](O)[C@@H]1O)Oc1ccccc1)C(=O)OC1CCC1 (stereo partly drawn) [Example 71, cyclobutyl ((((2R,3S,4R,5S)-5-(4-aminopyrrolo[2,1-f][1,2,4]triazin-7-yl)-2-(fluoromethyl)-3,4-dihydroxytetrahydrofuran-2-yl)methoxy)(phenoxy)phosphoryl)-L-alaninate]	298 nM	> 100 µM	143 nM	290 nM	13 µM	8.8 µM
